Measured values reported in patent US20120020876A1, “HEDGEHOG PATHWAY INHIBITORS” (priority 2009, published 2012).
Entries after “also recorded” stand apart in the source; their conditions may differ.

Experiments:
Assay type in all cases: in vivo, mouse
[1] = system: pancreatic tumors in KPC mice; assay: Survival study of tumor-bearing KPC mice; conditions: KPC mice enrolled with 5-10 mm tumors
Procedure: vehicles: 20 μL/g 0.85% NaCl+8 μL/g 5% HPBCD;
Compound A: 40 mg/kg Compound A+20 μL/g 0.85% NaCl;
For survival studies, mice were enrolled following the detection of 5-10 mm diameter tumor by ultrasound. Tumors were quantified by 3D ultrasound twice weekly until endpoint.

Gli1 = Gli1 expression in KPC tumors by quantitative real-time PCR; conditions: 40 mg/kg Compound A oral, treated for 4 days, vs control
Procedure: KPC mice harboring pancreatic tumors were treated with 40 mg/kg of Compound A by oral gavage, either singly, once daily for four days or at as part of a survival study. […] Six hours following the final dose, tissue samples were harvested, snap frozen in liquid nitrogen and stored at −80° C. Mice with abdominal ascites were excluded from analysis. Samples were analyzed by LC/MS, as described below.
RNA was isolated from tissues using the RNeasy kit (Qiagen). cDNA was synthesized from 1-2 ug of RNA using the AffinityScript QPCR cDNA Synthesis Kit (Stratagene). cDNA was analyzed by quantitative real-time PCR on a 7900HT Real-Time PCR system using relative quantification (ΔΔct) with the taqman gene expression assays (Applied Biosystems) (Table 7). Experiment was performed on 5 KPC tumors and 7 syngeneic tumors derived from K8484 or K8675 cells.

KPC tumors = assay: Doxorubicin delivery to treated KPC tumors (doxorubicin fluorescence, laser scanning cytometry); conditions: KPC tumors after 8-12 days of treatment; doxorubicin 20 mg/kg infused
Procedure: To assess the functional vasculature, biotin-conjugated Lycopersicon esculentum lectin (B1175-1 mg, Vector Laboratories) was resuspended in 425 μL PBS and mixed with 75 μL of 1 mg/mL Streptavidin-AlexaFluor 633 (S21375, Molecular Probes) (in sterile PBS). Prior to use, the lectin-avidin mixture was centrifuged 14,000 k on a microfuge for 10 minutes to remove any particulate. Fifteen minutes prior to euthanasia, 100 μl (0.4 mg total) of the conjugated lectin was administered as a slow intravenous infusion over 5 minutes, and the hemodynamics monitored closely to ensure that it was tolerated. […]
Mice were perfused with 4% paraformaldehyde in PBS, pH 7.4, while under terminal anesthesia. […] Doxorubicin fluorescence was determined by quantitative imaging cytometry using the iCys Research Imaging Cytometer (CompuCyte, Cambridge, Mass.) with iNovator software (CompuCyte).
A scanning protocol for quantification was configured with two channels. Nuclear DAPI fluorescence was excited by the 405 nm diode laser and detected in the blue ([…]) channel and doxorubicin fluorescence was excited by the argon […] laser and detected in the orange ([…]) channel. The threshold in the DAPI channel was optimised to selectively contour individual cells allowing fluorescence measurement within the primary and peripheral nuclear contours. […]

[2] = 19F NMR of fluorinated gemcitabine metabolites in tissue; conditions: KPC tumors; 10 days of treatment; vs untreated tumors
Procedure: Mice were treated with indicated regiments for 12 days. […] Tissues were rapidly dissected and snap frozen in liquid nitrogen. Tissue specimens were maintained at −80° C. until subjected to nucleotide extraction. Samples were homogenized in a Qiagen TissueLyser with a 5 mm ball bearing for 2×6 minutes at 25 KHz, in the presence of 4 volumes of ice-cold acetonitrile (μL acetonitrile=4×[…] of tissue). An equal volume of water was added and then the sample was spun at 14,000 rpm for 10 minutes at 4° C. Supernatant was freeze dried, resuspended in 600 μL of D2O and transferred to a 5 mm standard NMR tube (Wilmad) for ^19F NMR analysis on a Bruker 600 MHZ (14.1T) Avance NMR spectrometer using a QNP probe. Acquisition parameters included a 1D pulse sequence of ^19F observation and inverse-gated ^1H decoupling, spectral sweep width of 177 ppm (100000 Hz), 4096 scans and 1.65 sec of repetition time. Total acquisition time for each sample was about 1 hr 55 min. Trichloro-fluoro-methane was used for ^19F NMR chemical shift calibrations. A broad hump observed in the baseline of ^19F NMR spectra was removed by application of Linear-prediction (LP) back projection to the time domain data by using 2000 (number of LP) coefficients and 128 back-prediction points prior to Fourier transformation and phase correction. […]

SMILES: CC1=C2C[C@H]3[C@@H](CC[C@@H]4C[C@H](NS(C)(=O)=O)CC[C@@]43C)[C@@H]2CC[C@@]2(C1)O[C@@H]1C[C@H](C)CN[C@H]1[C@H]2C.Cl [Compound A]
- effect on survival of KPC mice [1]: Neither gemcitabine nor Compound A treatment had an effect on the survival
- Gli1 expression (Gli1): significant decrease; also recorded: significantly lower
- doxorubicin delivery to tumor tissue (fluorescence per unit area) (KPC tumors): evident but more variable; also recorded: increased content
- concentration of gemcitabine metabolites in KPC tumor tissue [2]: No difference
